Assays:
[1] = test system: IPOHE (Morningglory, Ivyleaf); test: Postemergence herbicidal evaluation; assay type: in vivo, Ipomoea hederacea; conditions: for IPOHE herbicidal rating: postemergence
Outline: (§1)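 Rate range approx. 0.0156–0.500 kg/ha. Foliar application at 40 psi to ~2-week seedlings; surfactant 0.5% TWEEN 20 in 50/50 acetone/water. Evaluation 4–5 wk post-treatment by 0–9 visual injury score, means of replicate tests.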

[2] = test system: ECHCG (Barnyardgrass); test: Preemergence herbicidal evaluation; assay type: in vivo, Echinochloa crus-galli; conditions: rated 4-5 weeks after treatment
Outline: (§2)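 Herbicidal effect scored visually, 0-9, at 4 to 5 weeks against a control; compound applied preemergence by aqueous acetone spray to seeded soil at about 0.0156 to 0.500 kg/ha.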

[3] = test system: MOOVA (Monochoria); test: Preemergence weed control under flooded paddy conditions; assay type: in vivo, Monochoria vaginalis; conditions: rated 3-4 weeks after treatment
Outline: (§3)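 Seeds or propagules sown in silt loam kept flooded 1.5-3 cm; compounds in 50/50 acetone/water pipetted into flood water at about 0.0313 to 0.500 kg/ha. Greenhouse; visual 0-9 rating versus untreated control 3-4 weeks after treatment.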

[4] = test system: SAGPY (Arrowhead (Pygmaea)); test: as above; assay type: in vivo, Sagittaria pygmaea; conditions: rated 3-4 weeks after treatment
Outline: as §3

[5] = test system: ZEAMX (Corn, Field); test: Preemergence herbicidal evaluation; assay type: in vivo, Zea mays; conditions: rated 4-5 weeks after treatment
Outline: as §2

[6] = test system: TRZAWR (Wheat, Winter, cv Riband); test: Preemergence herbicidal evaluation; assay type: in vivo, Triticum aestivum; conditions: rated 4-5 weeks after treatment
Outline: as §2

[7] = test system: GALAP (Galium); test: Postemergence herbicidal evaluation; assay type: in vivo, Galium aparine; conditions: for GALAP herbicidal rating: postemergence
Outline: as §1

[8] = test system: IPOHE (Morningglory, Ivyleaf); test: Preemergence herbicidal evaluation; assay type: in vivo, Ipomoea hederacea; conditions: rated 4-5 weeks after treatment
Outline: as §2

[9] = test system: AMBEL (Ragweed, Common); test: Postemergence herbicidal evaluation; assay type: in vivo, Ambrosia artemisifolia; conditions: for AMBEL herbicidal rating: postemergence
Outline: as §1

[10] = test system: CASOB (Sicklepod); test: Preemergence herbicidal evaluation; assay type: in vivo, Cassia obtusifolia; conditions: rated 4-5 weeks after treatment
Outline: as §2

[11] = test system: CASOB (Sicklepod); test: Postemergence herbicidal evaluation; assay type: in vivo, Cassia obtusifolia; conditions: for CASOB herbicidal rating: postemergence
Outline: as §1

[12] = test system: ABUTH (Velvetleaf); test: Preemergence herbicidal evaluation; assay type: in vivo, Abutilon theophrasti; conditions: rated 4-5 weeks after treatment
Outline: as §2

[13] = test system: CYPIR (Rice Flatsedge); test: Postemergence weed control under flooded paddy conditions; assay type: in vivo, Cyperus iria; conditions: postemergence weeds, 3-4 weeks after treatment
Outline: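 Herbicidal effect is judged by eye on a 0–9 scale versus control, 3–4 weeks after dosing. Dosing is into flood water kept 1.5–3 cm over the soil, at about 0.0313–0.500 kg/ha in aqueous/acetone 50/50 v/v, on 3–5 cm weeds and 1.5–2.5-leaf rice seedlings.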

[14] = test system: GLXMAW (Soybean, Williams); test: Preemergence herbicidal evaluation; assay type: in vivo, Glycine max, (L.) Merr. cv Williams; conditions: rated 4-5 weeks after treatment
Outline: as §2

CCOC(=O)/C=C1/S/C(=N/c2cc(-n3c(=O)cc(C(F)(F)F)n(C)c3=O)c(F)cc2Cl)N(CC(=O)OCC)C1=O [Compound 14]
IPOHE herbicidal rating ([1]; rate 0.0156 kg/ha): 9.0
IPOHE herbicidal rating ([1]; rate 0.0313 kg/ha): 9.0
IPOHE herbicidal rating ([1]; rate 0.0625 kg/ha): 9.0
IPOHE herbicidal rating ([1]; rate 0.1250 kg/ha): 9.0
ECHCG preemergence herbicidal rating ([2]; rate 0.0313 kg/ha): 0.0
ECHCG preemergence herbicidal rating ([2]; rate 0.0625 kg/ha): 0.0
ECHCG preemergence herbicidal rating ([2]; rate 0.1250 kg/ha): 1.0
ECHCG preemergence herbicidal rating ([2]; rate 0.2500 kg/ha): 3.0
ECHCG preemergence herbicidal rating ([2]; rate 0.5000 kg/ha): 6.0
Herbicidal rating MOOVA ([3]; 0.0313 kg/ha): 4.5
Herbicidal rating MOOVA ([3]; 0.0625 kg/ha): 4.5
Herbicidal rating MOOVA ([3]; 0.1250 kg/ha): 4.5
Herbicidal rating MOOVA ([3]; 0.2500 kg/ha): 0.0
Herbicidal rating SAGPY ([4]; 0.0313 kg/ha): 0.0
Herbicidal rating SAGPY ([4]; 0.0625 kg/ha): 0.0
Herbicidal rating SAGPY ([4]; 0.1250 kg/ha): 0.0
Herbicidal rating SAGPY ([4]; 0.2500 kg/ha): 0.0
ZEAMX preemergence herbicidal rating ([5]; rate 0.0313 kg/ha): 0.0
ZEAMX preemergence herbicidal rating ([5]; rate 0.0625 kg/ha): 0.0
ZEAMX preemergence herbicidal rating ([5]; rate 0.1250 kg/ha): 1.5
ZEAMX preemergence herbicidal rating ([5]; rate 0.2500 kg/ha): 2.0
ZEAMX preemergence herbicidal rating ([5]; rate 0.5000 kg/ha): 3.0
TRZAWR preemergence herbicidal rating ([6]; rate 0.0313 kg/ha): 0.0
TRZAWR preemergence herbicidal rating ([6]; rate 0.0625 kg/ha): 0.0
TRZAWR preemergence herbicidal rating ([6]; rate 0.1250 kg/ha): 0.0
TRZAWR preemergence herbicidal rating ([6]; rate 0.2500 kg/ha): 0.0
GALAP herbicidal rating ([7]; rate 0.0156 kg/ha): 2.0
GALAP herbicidal rating ([7]; rate 0.0313 kg/ha): 4.0
GALAP herbicidal rating ([7]; rate 0.0625 kg/ha): 5.0
GALAP herbicidal rating ([7]; rate 0.1250 kg/ha): 6.0
IPOHE preemergence herbicidal rating ([8]; rate 0.0313 kg/ha): 0.0
IPOHE preemergence herbicidal rating ([8]; rate 0.0625 kg/ha): 1.5
IPOHE preemergence herbicidal rating ([8]; rate 0.1250 kg/ha): 7.5
IPOHE preemergence herbicidal rating ([8]; rate 0.2500 kg/ha): 9.0
IPOHE preemergence herbicidal rating ([8]; rate 0.5000 kg/ha): 9.0
AMBEL herbicidal rating ([9]; rate 0.0156 kg/ha): 9.0
AMBEL herbicidal rating ([9]; rate 0.0313 kg/ha): 9.0
AMBEL herbicidal rating ([9]; rate 0.0625 kg/ha): 9.0
AMBEL herbicidal rating ([9]; rate 0.1250 kg/ha): 9.0
CASOB preemergence herbicidal rating ([10]; rate 0.0313 kg/ha): 0.0
CASOB preemergence herbicidal rating ([10]; rate 0.0625 kg/ha): 1.0
CASOB preemergence herbicidal rating ([10]; rate 0.1250 kg/ha): 1.5
CASOB preemergence herbicidal rating ([10]; rate 0.2500 kg/ha): 2.0
CASOB preemergence herbicidal rating ([10]; rate 0.5000 kg/ha): 5.0
CASOB herbicidal rating ([11]; rate 0.0156 kg/ha): 0.0
CASOB herbicidal rating ([11]; rate 0.0313 kg/ha): 2.0
CASOB herbicidal rating ([11]; rate 0.0625 kg/ha): 2.0
CASOB herbicidal rating ([11]; rate 0.1250 kg/ha): 9.0
ABUTH preemergence herbicidal rating ([12]; rate 0.0313 kg/ha): 1.0
ABUTH preemergence herbicidal rating ([12]; rate 0.0625 kg/ha): 2.0
ABUTH preemergence herbicidal rating ([12]; rate 0.1250 kg/ha): 9.0
ABUTH preemergence herbicidal rating ([12]; rate 0.2500 kg/ha): 9.0
ABUTH preemergence herbicidal rating ([12]; rate 0.5000 kg/ha): 9.0
Herbicidal rating CYPIR ([13]; rate 0.0313 kg/ha): 4.0
Herbicidal rating CYPIR ([13]; rate 0.0625 kg/ha): 5.8
Herbicidal rating CYPIR ([13]; rate 0.1250 kg/ha): 6.8
Herbicidal rating CYPIR ([13]; rate 0.2500 kg/ha): 4.5
GLXMAW preemergence herbicidal rating ([14]; rate 0.0313 kg/ha): 0.0
GLXMAW preemergence herbicidal rating ([14]; rate 0.0625 kg/ha): 0.0
GLXMAW preemergence herbicidal rating ([14]; rate 0.1250 kg/ha): 2.0
GLXMAW preemergence herbicidal rating ([14]; rate 0.2500 kg/ha): 3.0
GLXMAW preemergence herbicidal rating ([14]; rate 0.5000 kg/ha): 6.0

CCOC(=O)CN1C(=O)C(CCO)S/C1=N/c1cc(-n2c(=O)cc(C(F)(F)F)n(C)c2=O)c(F)cc1Cl (stereo not drawn) [Compound 49, Ethyl 2-{{2-chloro-5-[3,6-dihydro-3-methyl-2,6-dioxo-4-(trifluoromethyl)-1(2H)-pyrimidinyl]-4-fluorophenyl}imino}-5-(hydroxyethyl)-4-oxo-3-thiazolidineacetate]
Postemergence herbicidal rating IPOHE ([1]; Rate 0.0313 kg/ha): 9.0
Postemergence herbicidal rating IPOHE ([1]; Rate 0.0625 kg/ha): 9.0
Postemergence herbicidal rating IPOHE ([1]; rate 0.0156 kg/ha): 9.0
Preemergence herbicidal rating ECHCG ([2]; rate 0.0156 kg/ha): 0.0
Preemergence herbicidal rating ECHCG ([2]; rate 0.0313 kg/ha): 0.0
Preemergence herbicidal rating ECHCG ([2]; rate 0.0625 kg/ha): 0.0
Preemergence herbicidal rating ECHCG ([2]; rate 0.1250 kg/ha): 0.0
Preemergence herbicidal rating ECHCG ([2]; rate 0.2500 kg/ha): 3.0
Herbicidal rating MOOVA ([3]; 0.0313 kg/ha): 9.0
Herbicidal rating MOOVA ([3]; 0.0625 kg/ha): 9.0
Herbicidal rating MOOVA ([3]; 0.1250 kg/ha): 9.0
Herbicidal rating MOOVA ([3]; 0.2500 kg/ha): 9.0
Herbicidal rating SAGPY ([4]; 0.0313 kg/ha): 2.0
Herbicidal rating SAGPY ([4]; 0.0625 kg/ha): 4.0
Herbicidal rating SAGPY ([4]; 0.1250 kg/ha): 6.0
Herbicidal rating SAGPY ([4]; 0.2500 kg/ha): 7.0
Preemergence herbicidal rating ZEAMX ([5]; rate 0.0156 kg/ha): 0.0
Preemergence herbicidal rating ZEAMX ([5]; rate 0.0313 kg/ha): 0.0
Preemergence herbicidal rating ZEAMX ([5]; rate 0.0625 kg/ha): 0.0
Preemergence herbicidal rating ZEAMX ([5]; rate 0.1250 kg/ha): 3.0
Preemergence herbicidal rating ZEAMX ([5]; rate 0.2500 kg/ha): 3.0
Preemergence herbicidal rating TRZAWR ([6]; rate 0.0156 kg/ha): 0.0
Preemergence herbicidal rating TRZAWR ([6]; rate 0.0313 kg/ha): 0.0
Preemergence herbicidal rating TRZAWR ([6]; rate 0.0625 kg/ha): 0.0
Preemergence herbicidal rating TRZAWR ([6]; rate 0.1250 kg/ha): 0.0
Preemergence herbicidal rating TRZAWR ([6]; rate 0.2500 kg/ha): 2.0
Postemergence herbicidal rating GALAP ([7]; Rate 0.0313 kg/ha): 4.0
Postemergence herbicidal rating GALAP ([7]; Rate 0.0625 kg/ha): 4.0
Postemergence herbicidal rating GALAP ([7]; rate 0.0156 kg/ha): 2.0
Preemergence herbicidal rating IPOHE ([8]; rate 0.0156 kg/ha): 0.0
Preemergence herbicidal rating IPOHE ([8]; rate 0.0313 kg/ha): 0.0
Preemergence herbicidal rating IPOHE ([8]; rate 0.0625 kg/ha): 2.0
Preemergence herbicidal rating IPOHE ([8]; rate 0.1250 kg/ha): 9.0
Preemergence herbicidal rating IPOHE ([8]; rate 0.2500 kg/ha): 9.0
Postemergence herbicidal rating AMBEL ([9]; Rate 0.0313 kg/ha): 9.0
Postemergence herbicidal rating AMBEL ([9]; Rate 0.0625 kg/ha): 9.0
Postemergence herbicidal rating AMBEL ([9]; rate 0.0156 kg/ha): 9.0
Preemergence herbicidal rating CASOB ([10]; rate 0.0156 kg/ha): 0.0
Preemergence herbicidal rating CASOB ([10]; rate 0.0313 kg/ha): 3.0
Preemergence herbicidal rating CASOB ([10]; rate 0.1250 kg/ha): 3.0
Preemergence herbicidal rating CASOB ([10]; rate 0.2500 kg/ha): 9.0
Postemergence herbicidal rating CASOB ([11]; Rate 0.0313 kg/ha): 3.0
Postemergence herbicidal rating CASOB ([11]; Rate 0.0625 kg/ha): 3.0
Postemergence herbicidal rating CASOB ([11]; rate 0.0156 kg/ha): 2.0
Preemergence herbicidal rating ABUTH ([12]; rate 0.0156 kg/ha): 9.0
Preemergence herbicidal rating ABUTH ([12]; rate 0.0313 kg/ha): 9.0
Preemergence herbicidal rating ABUTH ([12]; rate 0.0625 kg/ha): 9.0
Preemergence herbicidal rating ABUTH ([12]; rate 0.1250 kg/ha): 9.0
Preemergence herbicidal rating ABUTH ([12]; rate 0.2500 kg/ha): 9.0
Herbicidal rating CYPIR ([13]; rate 0.0313 kg/ha): 0.0
Herbicidal rating CYPIR ([13]; rate 0.0625 kg/ha): 0.0
Herbicidal rating CYPIR ([13]; rate 0.1250 kg/ha): 2.0
Herbicidal rating CYPIR ([13]; rate 0.2500 kg/ha): 7.0
Preemergence herbicidal rating GLXMAW ([14]; rate 0.0156 kg/ha): 0.0
Preemergence herbicidal rating GLXMAW ([14]; rate 0.0313 kg/ha): 0.0
Preemergence herbicidal rating GLXMAW ([14]; rate 0.0625 kg/ha): 2.0
Preemergence herbicidal rating GLXMAW ([14]; rate 0.1250 kg/ha): 2.0
Preemergence herbicidal rating GLXMAW ([14]; rate 0.2500 kg/ha): 2.0
